Measurements taken from ChEMBL document CHEMBL1142949, “Dicarba analogues of the cyclic enkephalin peptides H-Tyr-c[D-Cys-Gly-Phe-D(or L)-Cys]NH(2) retain high opioid activity” (J Med Chem, 2007).

Experiments:
[1] = target: Delta-type opioid receptor (Mus musculus, UniProt P32300); assay: Agonist activity at delta opioid receptor in mouse vas deferens; type: functional, tissue-based
[2] = target: Mu-type opioid receptor (Cavia porcellus, UniProt P97266); assay: Agonist activity at mu opioid receptor in guinea pig ileum; type: functional, tissue-based
[3] = target: Mu-type opioid receptor (Rattus norvegicus, UniProt P33535); assay: Displacement of [3H]DAMGO from rat brain mu opioid receptor
[4] = target: Kappa-type opioid receptor (Cavia porcellus, UniProt P41144); assay: Displacement of [3H]U-69593 from guinea pig brain kappa opioid receptor
[5] = target: Delta-type opioid receptor (Rattus norvegicus, UniProt P33533); assay: Displacement of [3H]DSLET from rat brain delta opioid receptor
[6] = tested on: Brain; assay: Stability in rat brain membrane after 40 mins assessed as degradation by disulfide reductases; type: ADME, cell membranes
[7] = tested on: Brain; assay: Stability in rat brain membrane upto 24 hrs assessed as degradation by disulfide reductases; type: ADME, cell membranes

Mu-type opioid receptor (Cavia porcellus, UniProt P97266), sequence (P97266 whole entry): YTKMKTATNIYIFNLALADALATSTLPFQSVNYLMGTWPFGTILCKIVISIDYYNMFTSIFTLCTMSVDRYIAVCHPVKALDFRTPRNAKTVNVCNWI
Mu-type opioid receptor (Rattus norvegicus, UniProt P33535), sequence (P33535 whole entry): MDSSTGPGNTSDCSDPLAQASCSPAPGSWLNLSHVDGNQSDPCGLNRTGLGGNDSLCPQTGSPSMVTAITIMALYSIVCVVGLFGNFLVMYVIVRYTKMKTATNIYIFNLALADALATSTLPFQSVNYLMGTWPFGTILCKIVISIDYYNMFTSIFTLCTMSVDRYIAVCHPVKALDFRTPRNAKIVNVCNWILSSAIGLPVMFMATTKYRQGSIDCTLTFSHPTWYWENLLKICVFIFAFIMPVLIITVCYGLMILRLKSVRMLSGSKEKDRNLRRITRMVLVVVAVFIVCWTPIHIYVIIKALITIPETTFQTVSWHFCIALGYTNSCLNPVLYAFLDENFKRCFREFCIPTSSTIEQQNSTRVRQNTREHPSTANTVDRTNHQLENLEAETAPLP
Kappa-type opioid receptor, sequence (P41144 whole entry): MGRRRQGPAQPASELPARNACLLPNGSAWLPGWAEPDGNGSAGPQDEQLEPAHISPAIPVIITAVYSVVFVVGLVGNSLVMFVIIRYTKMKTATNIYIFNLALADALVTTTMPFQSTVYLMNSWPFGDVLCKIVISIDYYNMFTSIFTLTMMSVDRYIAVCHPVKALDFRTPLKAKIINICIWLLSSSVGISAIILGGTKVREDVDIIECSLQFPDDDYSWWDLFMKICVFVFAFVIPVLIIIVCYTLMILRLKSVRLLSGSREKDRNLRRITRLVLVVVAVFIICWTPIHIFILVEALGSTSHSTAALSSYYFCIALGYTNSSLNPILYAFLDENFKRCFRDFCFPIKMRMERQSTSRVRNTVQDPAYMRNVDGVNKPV
Delta-type opioid receptor (Rattus norvegicus, UniProt P33533), sequence (P33533 whole entry): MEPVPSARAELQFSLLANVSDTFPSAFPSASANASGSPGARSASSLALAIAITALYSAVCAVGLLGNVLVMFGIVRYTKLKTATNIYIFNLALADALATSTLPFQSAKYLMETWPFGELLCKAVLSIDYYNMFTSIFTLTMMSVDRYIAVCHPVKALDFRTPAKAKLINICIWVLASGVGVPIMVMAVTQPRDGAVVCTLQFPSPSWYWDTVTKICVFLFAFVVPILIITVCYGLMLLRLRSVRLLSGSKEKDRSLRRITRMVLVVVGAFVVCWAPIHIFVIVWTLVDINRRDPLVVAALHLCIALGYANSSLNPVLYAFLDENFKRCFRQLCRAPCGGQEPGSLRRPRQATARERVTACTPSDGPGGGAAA
Delta-type opioid receptor (Mus musculus, UniProt P32300), sequence (P32300 whole entry): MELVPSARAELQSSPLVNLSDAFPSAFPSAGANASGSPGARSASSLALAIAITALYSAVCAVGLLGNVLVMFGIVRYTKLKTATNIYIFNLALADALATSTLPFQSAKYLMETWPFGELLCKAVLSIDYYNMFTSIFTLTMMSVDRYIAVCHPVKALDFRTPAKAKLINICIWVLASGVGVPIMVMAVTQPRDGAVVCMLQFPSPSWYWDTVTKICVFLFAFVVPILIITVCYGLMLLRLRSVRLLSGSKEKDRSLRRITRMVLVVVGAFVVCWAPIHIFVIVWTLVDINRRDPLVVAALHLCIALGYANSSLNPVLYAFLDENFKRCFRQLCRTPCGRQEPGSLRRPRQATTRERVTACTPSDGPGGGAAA

Compound | IC50 [1] | IC50 [2] | Ki [3] | Ki [4] | Ki [5] | Activity [6] | Stability [7]
NC(=O)[C@H]1C/C=C/C[C@@H](NC(=O)[C@@H](N)Cc2ccc(O)cc2)C(=O)NCC(=O)N[C@@H](Cc2ccccc2)C(=O)N1 | 4.38 nM | 5.63 nM | 1.05 nM | 30.4 nM | 1.92 nM |  | 
NC(=O)[C@@H]1C/C=C\C[C@@H](NC(=O)[C@@H](N)Cc2ccc(O)cc2)C(=O)NCC(=O)N[C@@H](Cc2ccccc2)C(=O)N1 | 0.496 nM | 1.81 nM | 2.4 nM | 200 nM | 6.55 nM | Not Active | 
NC(=O)[C@H]1CCCC[C@@H](NC(=O)[C@@H](N)Cc2ccc(O)cc2)C(=O)NCC(=O)N[C@@H](Cc2ccccc2)C(=O)N1 | 3.64 nM | 11.2 nM | 1.17 nM | 71.5 nM | 3.34 nM |  | 
NC(=O)[C@@H]1C/C=C/C[C@@H](NC(=O)[C@@H](N)Cc2ccc(O)cc2)C(=O)NCC(=O)N[C@@H](Cc2ccccc2)C(=O)N1 | 0.275 nM | 0.898 nM | 0.616 nM | 57.6 nM | 1.25 nM | Not Active | 
NC(=O)[C@@H]1CSSC[C@@H](NC(=O)[C@@H](N)Cc2ccc(O)cc2)C(=O)NCC(=O)N[C@@H](Cc2ccccc2)C(=O)N1 |  |  |  | 40.1 nM |  | Not Active | Stable
NC(=O)[C@H]1C/C=C\C[C@@H](NC(=O)[C@@H](N)Cc2ccc(O)cc2)C(=O)NCC(=O)N[C@@H](Cc2ccccc2)C(=O)N1 | 9.91 nM | 11.9 nM | 2.27 nM | 498 nM | 7.04 nM |  | 
NC(=O)[C@@H]1CCCC[C@@H](NC(=O)[C@@H](N)Cc2ccc(O)cc2)C(=O)NCC(=O)N[C@@H](Cc2ccccc2)C(=O)N1 | 3.19 nM | 1.02 nM | 2.34 nM | 309 nM | 5.87 nM | Not Active | 
